Laboratory results: ChEMBL document CHEMBL4385627, “Rational approaches, design strategies, structure activity relationship and mechanistic insights for therapeutic coumarin hybrids” (Bioorg Med Chem, 2019)
≈ marks a conversion by molar mass, not a printed value.

Columns and labels:
Staphylococcus aureus [1] = experiment: Antimicrobial activity against Staphylococcus aureus incubated for 16 hrs by agar-well diffusion method; type: functional
Vero = experiment: Cytotoxicity against African green monkey Vero cells after 48 hrs by MTT assay; type: cell-based; settings: Chlorocebus sabaeus
Urease = Urease (Canavalia ensiformis, UniProt P07374); experiment: Inhibition of jack bean urease incubated for 30 mins by indophenol method
[2] = Growth inhibition of BHK21 cells at 100 uM incubated for 48 hrs by SRB assay relative to control; type: cell-based, Mesocricetus auratus, BHK-21; settings: hamster, read-out: GI
[3] = Growth inhibition of BHK21 cells at 0.1 uM incubated for 48 hrs by SRB assay relative to control; type: cell-based, Mesocricetus auratus, BHK-21; settings: hamster, read-out: GI
[4] = Growth inhibition of BHK21 cells at 1 uM incubated for 48 hrs by SRB assay relative to control; type: cell-based, Mesocricetus auratus, BHK-21; settings: hamster, read-out: GI
[5] = Growth inhibition of BHK21 cells at 10 uM incubated for 48 hrs by SRB assay relative to control; type: cell-based, Mesocricetus auratus, BHK-21; settings: hamster, read-out: GI
[6] = Inhibition of calf ALR2 using DL-glyceraldehyde as substrate preincubated for 5 mins followed by NADPH addition and measured after 10 mins by spectrophotometric analysis; parameters: species or system Bos taurus
Candida albicans = experiment: Antifungal activity against Candida albicans MTCC 227 by agar dilution method; type: functional
Aspergillus niger = experiment: Antifungal activity against Aspergillus niger MTCC 282 by agar dilution method; type: functional
Escherichia coli = experiment: Antibacterial activity against Escherichia coli MTCC 443 by agar dilution method; type: functional
Staphylococcus aureus [7] = experiment: Antibacterial activity against Staphylococcus aureus MTCC 96 by agar dilution method; type: functional
Pseudomonas aeruginosa = experiment: Antibacterial activity against Pseudomonas aeruginosa MTCC 1688 by agar dilution method; type: functional
Aspergillus clavatus = experiment: Antifungal activity against Aspergillus clavatus MTCC 1323 by agar dilution method; type: functional
[8] = Antioxidant activity assessed as superoxide anion radical scavenging activity by cyclic voltammetric analysis; type: functional
NCI-H157 [9] = experiment: Growth inhibition of human NCI-H157 cells at 0.1 uM incubated for 48 hrs by SRB assay relative to control; type: functional; settings: NCI-H157, 48 h, read-out: GI
NCI-H157 [10] = experiment: Growth inhibition of human NCI-H157 cells at 1 uM incubated for 48 hrs by SRB assay relative to control; type: functional; settings: NCI-H157, 48 h, read-out: GI
NCI-H157 [11] = experiment: Growth inhibition of human NCI-H157 cells at 10 uM incubated for 48 hrs by SRB assay relative to control; type: functional; settings: NCI-H157, 48 h, read-out: GI
NCI-H157 [12] = experiment: Growth inhibition of human NCI-H157 cells at 100 uM incubated for 48 hrs by SRB assay relative to control; type: functional; settings: NCI-H157, 48 h, read-out: GI
Rattus norvegicus [13] = experiment: Antiinflammatory activity in Wistar rat assessed as reduction in formalin-induced paw edema volume at 20 mg/kg, po administered 1 hr prior to formalin challenge and measured over 0 to 6 hrs post formalin challenge by plethysmography relative to control; type: functional
Cholinesterase = Cholinesterase (Homo sapiens, UniProt P06276); experiment: Inhibition of human plasma BuChE using butyrylthiocholine iodide as substrate preincubated for 5 mins followed by substrate addition and measured at 2 mins interval by Ellman's method
[14] = Inhibition of rat intestinal maltase-glucoamylase using p-nitrophenyl alpha-D-glucoside as substrate preincubated for 5 mins followed by substrate addition and measured after 30 mins by spectrophotometric analysis
HOP-92 = experiment: Growth inhibition of human HOP92 cells at 10 uM after 48 hrs by SRB assay relative to control; type: functional; settings: HOP-92, 48 h, read-out: GI
A549 = experiment: Cytotoxicity against human A549 cells incubated for 24 hrs by MTT assay; type: functional, cell-based; settings: A549, 24 h
[15] = Inhibition of bovine kidney ALR1 using sodium D-glucoronic acid as substrate preincubated for 5 mins followed by NADPH addition and measured after 10 mins by spectrophotometric analysis; parameters: species or system Bos taurus
[16] = Inhibition of Saccharomyces cerevisiae alpha-glucosidase using p-nitrophenyl-alpha-D-glucopyranoside as substrate preincubated for 10 mins followed by substrate addition and measured after 30 mins by spectrophotometric analysis
Leishmania major [17] = experiment: Antileishmanial activity against Leishmania major at 0.1 uM incubated for 72 hrs by MTT assay relative to control; type: functional
Leishmania major [18] = experiment: Antileishmanial activity against Leishmania major at 10 uM incubated for 72 hrs by MTT assay relative to control; type: functional
Leishmania major [19] = experiment: Antileishmanial activity against Leishmania major at 100 uM incubated for 72 hrs by MTT assay relative to control; type: functional
Leishmania major [20] = experiment: Antileishmanial activity against Leishmania major at 1 uM incubated for 72 hrs by MTT assay relative to control; type: functional
Acetylcholinesterase = Acetylcholinesterase (Homo sapiens, UniProt P22303); experiment: Inhibition of human recombinant AchE using acetylthiocholine iodide as substrate preincubated for 5 mins followed by substrate addition and measured at 2 mins interval by Ellman's method
Rattus norvegicus [21] = experiment: Antitumor activity against NMU challenged Sprague-Dawley rat assessed as tumor volume at 5 mg/kg, po administered once per day for 6 weeks via gavage followed by NMU post challenge for 2 weeks (reference value: 4.8 +/- 0.14 mm3); type: functional
MDA-MB-435 = experiment: Growth inhibition of human MDA-MB-435 cells by SRB assay; type: functional
MCF7 = experiment: Growth inhibition of human MCF7 cells by SRB assay; type: functional
A498 = experiment: Growth inhibition of human A498 cells at 10 uM after 48 hrs by SRB assay relative to control; type: functional; settings: A498, 48 h, read-out: GI
[22] = Antioxidant activity assessed as ABTS radical cation scavenging ability
Alpha glucosidase = Alpha glucosidase (Homo sapiens, UniProt O43451+P10253+P14410+Q2M2H8); experiment: Inhibition of alpha-glucosidase (unknown origin) using p-NPG as substrate preincubated for 5 mins followed by substrate addition and measured after 30 mins by spectrophotometric analysis; type: protein assay
[23] = molecular target: Amyloid-beta precursor protein (Homo sapiens) (UniProt P05067); experiment: Inhibition of amyloid beta (1 to 40) (unknown origin) aggregation at 1 uM incubated for 1 hr by thioflavin T fluorescence spectroscopic method relative to control
HeLa = experiment: Cytotoxicity against human HeLa cells after 24 hrs by MTT assay; type: cell-based
Trichomonas vaginalis = experiment: Trichomonacidal against metronidazole-susceptible Trichomonas vaginalis after 48 hrs by trypan blue exclusion assay; type: functional, organism-based
Lactobacillus jensenii = experiment: Inhibition of Lactobacillus jensenii ATCC 25258 assessed as reduction in number of cells by measuring turbidity after 24 hrs; type: organism-based; settings: ATCC 25258, 24 h
Spermatozoa = experiment: Spermicidal activity against human spermatozoa shaken for 10 secs by phase contrast microscopy; type: functional, cell-based
[24] = Inhibition of calf intestinal alkaline phosphatase using p-nitrophenyl phosphate as substrate preincubated for 10 mins followed by substrate addition and measured after 30 mins by spectrometry based assay; parameters: species or system Bos taurus
MDA-MB-231 = experiment: Cytotoxicity against human MDA-MB-231 cells incubated for 24 hrs by MTT assay; type: functional, cell-based; settings: MDA-MB-231, 24 h

Sequence of Cholinesterase (P06276 whole entry): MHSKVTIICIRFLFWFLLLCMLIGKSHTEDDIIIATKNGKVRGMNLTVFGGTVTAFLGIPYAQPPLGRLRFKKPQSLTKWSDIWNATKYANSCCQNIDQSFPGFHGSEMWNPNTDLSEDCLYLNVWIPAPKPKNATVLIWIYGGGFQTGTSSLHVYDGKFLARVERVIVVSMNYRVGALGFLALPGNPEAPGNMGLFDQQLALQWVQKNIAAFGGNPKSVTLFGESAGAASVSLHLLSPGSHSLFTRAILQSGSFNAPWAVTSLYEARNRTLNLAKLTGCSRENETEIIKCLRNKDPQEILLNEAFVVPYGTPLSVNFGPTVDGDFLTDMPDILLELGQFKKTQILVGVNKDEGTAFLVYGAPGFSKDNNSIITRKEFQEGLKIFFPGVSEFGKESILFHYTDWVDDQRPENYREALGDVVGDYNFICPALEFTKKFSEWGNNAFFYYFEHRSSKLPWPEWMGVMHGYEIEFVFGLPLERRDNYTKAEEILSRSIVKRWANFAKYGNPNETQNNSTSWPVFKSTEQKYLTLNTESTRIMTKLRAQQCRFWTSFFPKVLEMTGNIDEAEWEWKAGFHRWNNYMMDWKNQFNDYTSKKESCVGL
Sequence of Amyloid-beta precursor protein (Homo sapiens) (P05067 whole entry): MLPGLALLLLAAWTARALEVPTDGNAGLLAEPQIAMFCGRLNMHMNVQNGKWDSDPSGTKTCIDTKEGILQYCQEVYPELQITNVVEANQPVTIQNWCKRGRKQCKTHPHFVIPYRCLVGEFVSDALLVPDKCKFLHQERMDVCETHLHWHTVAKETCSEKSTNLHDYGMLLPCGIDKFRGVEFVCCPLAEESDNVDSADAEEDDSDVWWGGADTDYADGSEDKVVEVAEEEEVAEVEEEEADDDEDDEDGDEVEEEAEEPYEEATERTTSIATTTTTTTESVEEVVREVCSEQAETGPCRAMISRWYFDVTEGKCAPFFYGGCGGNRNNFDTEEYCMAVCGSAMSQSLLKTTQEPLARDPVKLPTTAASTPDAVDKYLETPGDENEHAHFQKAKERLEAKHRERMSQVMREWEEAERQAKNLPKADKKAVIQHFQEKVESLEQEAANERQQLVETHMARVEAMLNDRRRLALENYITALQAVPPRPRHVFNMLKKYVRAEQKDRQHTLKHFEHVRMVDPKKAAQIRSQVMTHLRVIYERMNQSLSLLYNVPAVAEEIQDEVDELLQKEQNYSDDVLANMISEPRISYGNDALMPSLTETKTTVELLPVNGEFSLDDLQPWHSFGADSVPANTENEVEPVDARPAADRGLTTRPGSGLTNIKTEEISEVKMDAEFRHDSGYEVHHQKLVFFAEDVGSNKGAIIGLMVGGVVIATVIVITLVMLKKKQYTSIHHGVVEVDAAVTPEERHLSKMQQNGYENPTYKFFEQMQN
Sequence of Urease (P07374 whole entry): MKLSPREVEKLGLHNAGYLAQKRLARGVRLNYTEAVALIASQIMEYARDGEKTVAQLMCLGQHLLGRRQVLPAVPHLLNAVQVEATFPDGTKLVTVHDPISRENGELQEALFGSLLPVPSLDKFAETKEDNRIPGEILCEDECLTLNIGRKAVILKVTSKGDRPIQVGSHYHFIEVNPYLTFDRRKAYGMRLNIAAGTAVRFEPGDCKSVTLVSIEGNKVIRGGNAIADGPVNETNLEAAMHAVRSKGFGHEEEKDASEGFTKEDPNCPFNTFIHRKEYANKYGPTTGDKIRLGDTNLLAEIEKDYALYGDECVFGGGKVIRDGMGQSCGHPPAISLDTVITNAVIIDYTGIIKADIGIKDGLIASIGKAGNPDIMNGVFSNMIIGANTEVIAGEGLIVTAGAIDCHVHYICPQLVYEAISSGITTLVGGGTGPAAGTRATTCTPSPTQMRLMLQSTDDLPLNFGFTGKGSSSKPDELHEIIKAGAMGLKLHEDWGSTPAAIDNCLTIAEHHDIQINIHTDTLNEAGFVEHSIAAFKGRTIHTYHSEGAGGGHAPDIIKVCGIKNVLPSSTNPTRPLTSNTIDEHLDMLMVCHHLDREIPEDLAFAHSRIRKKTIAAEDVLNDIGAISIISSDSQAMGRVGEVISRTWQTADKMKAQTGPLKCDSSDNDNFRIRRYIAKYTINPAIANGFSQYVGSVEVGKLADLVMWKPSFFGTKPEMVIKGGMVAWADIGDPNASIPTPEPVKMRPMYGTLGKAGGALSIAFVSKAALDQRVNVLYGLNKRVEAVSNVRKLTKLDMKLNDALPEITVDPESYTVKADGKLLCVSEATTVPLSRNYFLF
Sequence of Acetylcholinesterase (P22303 whole entry): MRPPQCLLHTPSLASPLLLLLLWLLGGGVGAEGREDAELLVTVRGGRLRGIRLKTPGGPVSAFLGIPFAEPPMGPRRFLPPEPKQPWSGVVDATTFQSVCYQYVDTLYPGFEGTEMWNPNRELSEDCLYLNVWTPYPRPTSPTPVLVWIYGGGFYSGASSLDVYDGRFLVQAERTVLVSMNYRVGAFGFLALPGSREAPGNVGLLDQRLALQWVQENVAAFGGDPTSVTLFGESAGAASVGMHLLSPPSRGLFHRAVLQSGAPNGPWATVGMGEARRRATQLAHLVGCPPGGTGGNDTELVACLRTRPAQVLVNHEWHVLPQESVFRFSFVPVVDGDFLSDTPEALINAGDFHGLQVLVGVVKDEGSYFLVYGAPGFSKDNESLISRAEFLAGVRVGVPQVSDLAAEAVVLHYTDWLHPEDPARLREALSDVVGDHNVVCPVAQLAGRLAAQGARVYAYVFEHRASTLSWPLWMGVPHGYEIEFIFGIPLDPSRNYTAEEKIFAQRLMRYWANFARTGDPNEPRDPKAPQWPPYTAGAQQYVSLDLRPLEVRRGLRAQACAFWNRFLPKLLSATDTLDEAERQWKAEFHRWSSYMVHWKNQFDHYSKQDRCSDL

CC(C)(C)NC(=O)c1c(-c2ccccc2)nc(SCc2cc(=O)oc3ccc4ccccc4c23)[nH]c1=O
MIC (Staphylococcus aureus [1]): 2.5 µg/mL (≈ 4.89 µM)

O=Cc1c(-c2cc3cc(Br)ccc3oc2=O)[nH]c2ccccc12
IC50 (Vero): 100000 nM

NC(=S)N1N=C(c2cc3ccccc3oc2=O)CC1c1ccccc1 (stereo not given)
IC50 (Urease): 358 nM

Cc1cc(C)cc(-n2c(-c3cc4ccccc4oc3=O)cs/c2=N/NC(=O)c2cc3ccccc3oc2=O)c1
inhibition at 48 h, 100 µM [2]: 66.8% | inhibition at 48 h, 0.1 µM [3]: 55.5% | inhibition at 48 h, 1 µM [4]: 59.4% | inhibition at 48 h, 10 µM [5]: 64.2%

Nc1cc(Cl)ccc1/C(=N/Nc1nc(-c2cc3ccccc3oc2=O)cs1)c1ccccc1
IC50 [6]: 459 nM

C/C(=N\NC(=S)Nc1ccc(F)cc1F)c1cc2ccccc2oc1=O
MIC (Candida albicans): 100 µg/mL (≈ 268 µM) | MIC (Aspergillus niger): 100 µg/mL (≈ 268 µM) | MIC (Escherichia coli): 50 µg/mL (≈ 134 µM) | MIC (Staphylococcus aureus [7]): 50 µg/mL (≈ 134 µM) | MIC (Pseudomonas aeruginosa): 100 µg/mL (≈ 268 µM) | MIC (Aspergillus clavatus): 100 µg/mL (≈ 268 µM)

O=C(OCc1cc(=O)oc2c(O)c(O)ccc12)c1cc(O)c(O)c(O)c1
IC50 [8]: 64000 nM

Cc1ccc(-n2c(-c3cc4ccccc4oc3=O)cs/c2=N/NC(=O)c2cc3ccccc3oc2=O)cc1C
inhibition of growth at 0.1 µM (NCI-H157 [9]): 45.5% | inhibition of growth at 1 µM (NCI-H157 [10]): 53.8% | inhibition of growth at 10 µM (NCI-H157 [11]): 57.3% | inhibition of growth at 100 µM (NCI-H157 [12]): 65%

O=C(Nc1nc2ccccc2[nH]1)c1cc2ccccc2oc1=O
inhibition in vivo at 20 mg/kg (Rattus norvegicus [13]): 42.9%

O=c1oc2ccc(Br)cc2cc1-c1nc2ccccc2[nH]1
inhibition in vivo at 20 mg/kg (Rattus norvegicus [13]): 45.5%

O=C(Cc1cc(=O)oc2cc(O)ccc12)NCCCCCCCNc1c2c(nc3ccccc13)CCCC2
IC50 (Cholinesterase): 63 to 63.5 nM

COc1ccccc1N1C(=O)/C(=C/c2ccc(F)cc2)S/C1=N\NC(=O)c1cc2ccccc2oc1=O
IC50 [14]: 380 nM

Cc1cc(=O)oc2cc(Oc3nc(-c4ccc(B(O)O)s4)cn4c(-c5ccc(B(O)O)s5)cnc34)ccc12
inhibition of growth at 10 µM (HOP-92): 92.3%

COc1ccc(-c2cc(-c3cc4ccccc4oc3=O)nc(Cc3ccc(F)cc3)n2)cc1
IC50 (A549): 16100 nM

C/C(=N\Nc1nc(-c2cc3ccccc3oc2=O)cs1)c1ccccc1
IC50 [6]: 120 nM | IC50 [15]: 2940 nM

O=C(N/N=C/c1cc(Cl)cc(Cl)c1O)c1nc(-c2cc3ccccc3oc2=O)cs1
IC50 [16]: 6240 nM

Cc1cccc(-n2c(-c3cc4ccccc4oc3=O)cs/c2=N/NC(=O)c2cc3ccccc3oc2=O)c1C
inhibition at 0.1 µM (Leishmania major [17]): 53.9% | inhibition at 10 µM (Leishmania major [18]): 66.2% | inhibition at 100 µM (Leishmania major [19]): 70.4% | inhibition at 1 µM (Leishmania major [20]): 60.7%

O=C(Cc1cc(=O)oc2cc(O)ccc12)NCCCNCCNCCCNc1c2c(nc3ccccc13)CCCC2
IC50 (Acetylcholinesterase): 38 nM

O=C(/C=C/c1ccc(OCCN2CCCCC2)cc1)c1cc2ccccc2oc1=O
Activity (Rattus norvegicus [21]): 3.3 mm3 | GI50 (MDA-MB-435): 75.3 µg/mL (≈ 187 µM) | GI50 (MCF7): < 10 µg/mL

C/C(=N\Nc1nc(-c2cc3ccccc3oc2=O)cs1)c1ccccc1Br
IC50 [6]: 160 nM | IC50 [15]: 34700 nM

Cc1cc(=O)oc2cc(Oc3nc(-c4ccc(B(O)O)cc4)cn4c(-c5ccc(B(O)O)cc5)cnc34)ccc12
inhibition of growth at 10 µM (A498): 90.1%

CCOC(=O)C(C)(C)Oc1ccc(C(=O)c2cc3cc([N+](=O)[O-])ccc3oc2=O)cc1
IC50 [22]: 18600 nM

Cc1ccc(N2C(=O)/C(=C/c3ccc(F)cc3)S/C2=N\NC(=O)c2cc3ccccc3oc2=O)cc1
IC50 (Alpha glucosidase): 110 nM | IC50 [14]: 70 nM

C/C(=N\Nc1nc(-c2cc3ccccc3oc2=O)cs1)c1ccc(Br)cc1
IC50 [6]: 110 nM | IC50 [15]: 1710 nM

O=C(Cc1cc(=O)oc2cc(O)ccc12)NCCCCCCCCNc1c2c(nc3ccccc13)CCCC2
inhibition [23]: 82%

O=C(c1ccc(O)cc1)C(c1c(O)c2ccccc2oc1=O)N1CCCCC1 (stereo not given)
IC50 (HeLa): 234 µg/mL (≈ 617 µM) | IC50 (Trichomonas vaginalis): 29400 nM | IC50 (Lactobacillus jensenii): > 1000 µg/mL | IC50 (Spermatozoa): 500000 nM

Cc1ccc(-n2c(-c3cc4ccccc4oc3=O)cs/c2=N/NC(=O)c2cc3ccccc3oc2=O)c(C)c1
IC50 [24]: 1380 nM

O=c1oc2ccc(Cl)cc2cc1-c1nc2ccccc2[nH]1
inhibition in vivo at 20 mg/kg (Rattus norvegicus [13]): 46.8%

C[C@@H]1[C@H](O)[C@@H](C)/C=C/C=C/C=C/C=C/C=C/C=C/C=C/[C@H](O[C@@H]2O[C@H](C)[C@@H](O)[C@H](N)[C@@H]2O)C[C@@H]2O[C@](O)(C[C@@H](O)C[C@@H](O)[C@H](O)CC[C@@H](O)C[C@@H](O)CC(=O)O[C@H]1C)C[C@H](O)[C@H]2C(=O)O [AMPHOTERICIN B]
inhibition at 0.1 µM (Leishmania major [17]): 69.9% | inhibition at 10 µM (Leishmania major [18]): 76.3% | inhibition at 100 µM (Leishmania major [19]): 79.8% | inhibition at 1 µM (Leishmania major [20]): 74.8%

CCOC(=O)C(C)(C)Oc1ccc(C(=O)c2cc3cc(C)ccc3oc2=O)cc1
IC50 [22]: 8510 nM

O=C(O)c1cn(C2CC2)c2cc(N3CCNCC3)c(F)cc2c1=O [CIPROFLOXACIN]
MIC (Staphylococcus aureus [1]): 10 µg/mL (≈ 30.2 µM)

O=c1oc2ccccc2cc1-c1cc(-c2ccc(Cl)cc2)nc(Cc2ccc(F)cc2)n1
IC50 (MDA-MB-231): 16500 nM | IC50 (A549): 2150 nM

O=C(N/N=C/c1cc(Cl)ccc1O)c1nc(-c2cc3ccccc3oc2=O)cs1
IC50 [16]: 8230 nM
